Patent US8940742B2, “Heterocyclic compounds and uses thereof” (Infinity Pharmaceuticals, Inc., priority 2012, dated 2015)
pIC50: −log10 of the molar value.

Assays:
[1] = reference compound, 5 μM; cited from earlier work
[2] = PBS pH 7.4, 37° C., 24 hours, 5 μM; cited from earlier work
[3] = system: lupus symptoms; settings: B6.Sle1z.Sle3z model; cited from earlier work
[4] = target: T1, Raw264.7 p110 γ (Mus musculus, UniProt Q9JHG7); assay: Raw264.7 p110 γ cellular assay (phospho-AKT); format: cell-based; settings: serum-starved RAW264.7 cells stimulated with C5a
T1 construct: reduction of phospho-AKT in stimulated RAW 264.7 cells; endogenous in cells; host or cells: RAW264.7 macrophages
Text: (b) PI3K-γ Selective Assay
Briefly, serum-starved PAW264.7 cells are stimulated with a known GPCR agonist C5a. […] Cells can be treated with test compounds prior to, simultaneously with, or subsequent to the stimulation by C5a. RAW 264.7 cells respond to the complement component fragment C5a through activation of the C5a receptor, and the C5a receptor activates macrophages and induces cell migration.

[5] = target: RAJI p110 δ (Homo sapiens, UniProt O00329); assay: RAJI p110 δ cellular assay (phospho-AKT);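 note: potency based on lowered phosphorylated AKT in RAJI cells, as a readout of PI3K-δ dependent B-cell receptor signaling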
RAJI p110 δ, sequence (O00329 whole entry): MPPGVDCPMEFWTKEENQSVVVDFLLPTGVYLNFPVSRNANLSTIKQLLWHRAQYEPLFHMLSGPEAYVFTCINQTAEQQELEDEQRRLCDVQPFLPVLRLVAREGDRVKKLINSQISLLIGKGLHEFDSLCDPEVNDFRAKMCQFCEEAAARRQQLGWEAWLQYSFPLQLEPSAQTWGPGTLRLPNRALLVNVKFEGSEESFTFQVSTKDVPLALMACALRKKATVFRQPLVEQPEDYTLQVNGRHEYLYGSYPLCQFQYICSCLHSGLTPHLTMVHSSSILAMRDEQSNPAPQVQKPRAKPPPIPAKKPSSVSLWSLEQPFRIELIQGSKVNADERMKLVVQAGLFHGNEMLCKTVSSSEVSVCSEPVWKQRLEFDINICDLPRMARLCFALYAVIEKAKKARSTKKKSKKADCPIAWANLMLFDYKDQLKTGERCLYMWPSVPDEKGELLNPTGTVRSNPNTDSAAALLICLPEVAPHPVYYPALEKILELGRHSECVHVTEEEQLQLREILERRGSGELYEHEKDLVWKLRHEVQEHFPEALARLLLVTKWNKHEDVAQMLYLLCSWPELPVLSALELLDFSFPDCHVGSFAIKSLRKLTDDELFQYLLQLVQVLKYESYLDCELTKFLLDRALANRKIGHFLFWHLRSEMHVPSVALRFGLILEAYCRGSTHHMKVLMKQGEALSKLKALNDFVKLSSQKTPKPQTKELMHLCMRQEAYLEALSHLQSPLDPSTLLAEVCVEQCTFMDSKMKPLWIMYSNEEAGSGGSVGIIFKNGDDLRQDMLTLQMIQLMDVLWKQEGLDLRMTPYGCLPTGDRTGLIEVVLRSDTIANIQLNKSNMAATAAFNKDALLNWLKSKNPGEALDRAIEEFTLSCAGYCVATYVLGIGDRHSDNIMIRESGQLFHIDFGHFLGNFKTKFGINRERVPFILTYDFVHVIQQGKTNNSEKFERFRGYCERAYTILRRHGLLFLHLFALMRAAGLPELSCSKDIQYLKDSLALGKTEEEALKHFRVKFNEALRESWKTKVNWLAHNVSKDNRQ
RAJI p110 δ, sequence (P27986 whole entry partner): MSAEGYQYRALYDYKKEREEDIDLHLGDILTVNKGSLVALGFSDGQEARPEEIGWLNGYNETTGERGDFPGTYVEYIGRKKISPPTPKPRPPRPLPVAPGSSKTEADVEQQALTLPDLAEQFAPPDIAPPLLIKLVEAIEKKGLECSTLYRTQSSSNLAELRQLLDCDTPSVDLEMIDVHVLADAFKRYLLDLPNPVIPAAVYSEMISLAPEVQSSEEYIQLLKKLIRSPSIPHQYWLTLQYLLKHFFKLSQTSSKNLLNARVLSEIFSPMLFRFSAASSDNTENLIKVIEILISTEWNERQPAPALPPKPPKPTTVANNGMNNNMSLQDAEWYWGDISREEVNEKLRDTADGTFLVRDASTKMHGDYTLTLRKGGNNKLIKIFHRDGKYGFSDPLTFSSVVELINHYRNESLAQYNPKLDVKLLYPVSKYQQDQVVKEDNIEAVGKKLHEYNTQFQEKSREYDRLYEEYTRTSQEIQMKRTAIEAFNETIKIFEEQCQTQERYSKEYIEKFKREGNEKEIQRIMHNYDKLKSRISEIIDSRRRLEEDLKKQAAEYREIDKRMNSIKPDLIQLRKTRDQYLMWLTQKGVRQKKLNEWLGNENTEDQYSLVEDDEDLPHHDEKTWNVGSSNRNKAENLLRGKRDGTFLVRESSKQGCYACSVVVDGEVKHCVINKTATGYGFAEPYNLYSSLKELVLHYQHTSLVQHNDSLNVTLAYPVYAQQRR
Text: (a) PI3K-δ Selective Assay
Reduction of phospho-AKT is indicative of compounds that may inhibit B-cell proliferation and function in certain diseases.

[6] = target: T2, PI3K γ (Homo sapiens, UniProt P48736); assay: PI3-Kinase Promega ADP-Glo Max assay; format: biochemical; settings: 40 nM kinase, 3 mM ATP, 500 uM diC8-PtdInsP
T2 construct: purchased Millipore
T2 sequence (P48736 whole entry): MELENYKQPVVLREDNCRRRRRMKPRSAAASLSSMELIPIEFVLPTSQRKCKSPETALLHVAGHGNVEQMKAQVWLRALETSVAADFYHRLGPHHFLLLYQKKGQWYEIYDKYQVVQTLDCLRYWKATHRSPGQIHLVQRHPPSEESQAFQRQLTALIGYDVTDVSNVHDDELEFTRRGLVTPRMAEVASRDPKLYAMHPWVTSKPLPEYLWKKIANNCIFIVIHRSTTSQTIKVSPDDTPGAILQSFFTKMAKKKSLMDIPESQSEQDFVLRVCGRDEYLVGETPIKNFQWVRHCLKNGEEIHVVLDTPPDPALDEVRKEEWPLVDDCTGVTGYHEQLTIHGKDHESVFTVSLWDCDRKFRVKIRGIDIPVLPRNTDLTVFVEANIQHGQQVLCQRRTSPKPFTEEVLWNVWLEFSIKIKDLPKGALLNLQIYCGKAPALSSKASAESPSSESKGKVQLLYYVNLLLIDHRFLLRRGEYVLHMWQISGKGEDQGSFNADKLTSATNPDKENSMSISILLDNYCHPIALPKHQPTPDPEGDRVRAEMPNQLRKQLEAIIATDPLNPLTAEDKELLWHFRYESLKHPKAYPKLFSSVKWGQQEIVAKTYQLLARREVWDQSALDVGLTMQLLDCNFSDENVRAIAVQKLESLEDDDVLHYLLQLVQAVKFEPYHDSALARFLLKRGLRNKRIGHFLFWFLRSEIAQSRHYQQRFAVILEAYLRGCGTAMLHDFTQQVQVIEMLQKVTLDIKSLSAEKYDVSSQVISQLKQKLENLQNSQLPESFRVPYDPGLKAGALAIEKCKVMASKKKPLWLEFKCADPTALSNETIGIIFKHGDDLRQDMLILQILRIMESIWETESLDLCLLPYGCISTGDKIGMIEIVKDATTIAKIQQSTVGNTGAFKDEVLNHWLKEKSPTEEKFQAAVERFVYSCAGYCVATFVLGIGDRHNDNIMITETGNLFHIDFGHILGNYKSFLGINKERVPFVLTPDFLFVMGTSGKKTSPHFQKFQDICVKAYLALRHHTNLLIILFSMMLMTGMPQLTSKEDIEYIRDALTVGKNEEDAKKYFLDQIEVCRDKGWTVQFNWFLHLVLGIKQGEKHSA
In short: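 Human class I PI3K reactions ran 2 hours at room temperature, followed by stop solution (40 min) and detection mix (1 hour) before luminescence reading.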

[7] = target: T3, PI3K β (Homo sapiens, UniProt P42338); assay: PI3-Kinase Promega ADP-Glo Max assay; format: biochemical; settings: 40 nM kinase, 3 mM ATP, 500 uM diC8-PtdInsP
T3 construct: purchased Millipore
T3 sequence (P42338 whole entry): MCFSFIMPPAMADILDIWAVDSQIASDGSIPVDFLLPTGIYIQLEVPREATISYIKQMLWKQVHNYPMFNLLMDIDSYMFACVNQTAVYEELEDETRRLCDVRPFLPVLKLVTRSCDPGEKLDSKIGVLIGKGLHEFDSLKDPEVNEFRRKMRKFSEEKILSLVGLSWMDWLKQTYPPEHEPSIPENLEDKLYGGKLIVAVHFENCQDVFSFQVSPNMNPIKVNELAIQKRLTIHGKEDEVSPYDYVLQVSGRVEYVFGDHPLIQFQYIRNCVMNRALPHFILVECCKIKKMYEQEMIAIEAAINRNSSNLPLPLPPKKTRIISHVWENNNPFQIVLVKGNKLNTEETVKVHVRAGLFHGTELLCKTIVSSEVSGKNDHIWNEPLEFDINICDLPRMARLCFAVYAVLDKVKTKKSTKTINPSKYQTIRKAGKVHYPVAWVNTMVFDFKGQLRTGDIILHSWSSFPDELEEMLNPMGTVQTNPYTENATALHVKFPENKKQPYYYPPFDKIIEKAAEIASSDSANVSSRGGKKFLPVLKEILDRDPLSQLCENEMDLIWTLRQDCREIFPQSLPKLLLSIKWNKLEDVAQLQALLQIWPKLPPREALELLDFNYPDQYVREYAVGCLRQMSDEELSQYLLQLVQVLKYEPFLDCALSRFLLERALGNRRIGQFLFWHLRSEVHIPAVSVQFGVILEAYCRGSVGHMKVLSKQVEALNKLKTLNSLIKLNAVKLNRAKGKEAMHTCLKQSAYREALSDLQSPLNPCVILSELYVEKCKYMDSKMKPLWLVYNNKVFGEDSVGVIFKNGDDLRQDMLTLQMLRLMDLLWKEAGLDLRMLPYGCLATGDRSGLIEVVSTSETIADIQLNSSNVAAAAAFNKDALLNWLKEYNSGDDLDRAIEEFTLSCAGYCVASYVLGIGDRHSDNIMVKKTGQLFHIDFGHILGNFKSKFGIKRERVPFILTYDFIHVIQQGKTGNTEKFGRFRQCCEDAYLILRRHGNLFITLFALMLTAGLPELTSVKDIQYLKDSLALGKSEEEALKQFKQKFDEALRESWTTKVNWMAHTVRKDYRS
T3 sequence (P27986 whole entry partner): as the sequence (P27986 whole entry partner) above
In short: (§1)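 Human class I PI3K (20 nM α or δ, 40 nM β) pre-incubated 15 min with compound in HEPES pH 7.4 buffer with MgCl2, then reacted 2 h at room temperature with 3 mM ATP and 500 uM diC8-PtdInsP. ADP measured by ADP-Glo Max luminescence; % inhibition fitted to 4-parameter logistic for IC50.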

[8] = target: T4, PI3K δ (Homo sapiens, UniProt O00329); assay: PI3-Kinase Promega ADP-Glo Max assay; format: biochemical; settings: 20 nM kinase, 3 mM ATP, 500 uM diC8-PtdInsP
T4 construct: purchased Millipore
T4 sequence (O00329 whole entry): as the sequence (O00329 whole entry) above
T4 sequence (P27986 whole entry partner): as the sequence (P27986 whole entry partner) above
In short: as §1

[9] = target: T5, PI3K α (Homo sapiens, UniProt P42336); assay: PI3-Kinase Promega ADP-Glo Max assay; format: biochemical; settings: 20 nM kinase, 3 mM ATP, 500 uM diC8-PtdInsP
T5 construct: purchased Millipore
In short: as §1

Row | Structure (SMILES) | plasma stability [1] | chemical stability [2] | lupus symptoms [3] | pIC50 [4] | pIC50 [5] | pIC50 [6] | pIC50 [7] | pIC50 [8] | pIC50 [9]
1 | CCCOc1cc(N)ccc1C(=O)OCCN(CC)CC [propoxycaine] | low plasma stability | – | – | – | – | – | – | – | –
2 | O=C(O)CCCc1ccc(N(CCCl)CCCl)cc1 [chlorambucil] | – | largely hydrolyzed over the course of 24 hours | – | – | – | – | – | – | –
3 | CO[C@H]1C[C@@H]2CC[C@@H](C)[C@@](O)(O2)C(=O)C(=O)N2CCCC[C@H]2C(=O)O[C@H]([C@H](C)C[C@@H]2CC[C@@H](OCCO)[C@H](OC)C2)CC(=O)[C@H](C)/C=C(\C)[C@@H](O)[C@@H](OC)C(=O)[C@H](C)C[C@H](C)/C=C/C=C/C=C/1C [RAD001, everolimus] | – | – | ameliorate lupus symptoms | – | – | – | – | – | –
4 | CC(C)[N+](C)(CCOC(=O)C1c2ccccc2Oc2ccccc21)C(C)C [propantheline] | intermediate plasma stability | – | – | – | – | – | – | – | –
5 | C[C@H](NC(=O)c1nc(-c2cccc(S(=O)(=O)NC(C)(C)C)c2)cnc1N)c1cc2cccc(Cl)c2c(=O)n1-c1ccccc1 [Compound 86] | – | – | – | > 7.00 | > 7.00 | 6.00 to 7.00 | 5.00 to 6.00 | 5.00 to 6.00 | 5.00 to 6.00
6 | CC(C)Oc1ccc(-c2cnc(N)c(C(=O)N[C@@H](C)c3cc4cccc(Cl)c4c(=O)n3-c3ccccc3)n2)cc1Cl [Compound 88] | – | – | – | 5.00 to 6.00 | < 5.00 | 5.00 to 6.00 | < 5.00 | < 5.00 | < 5.00
7 | C[C@H](NC(=O)c1nc(-c2cccc(S(N)(=O)=O)c2)cnc1N)c1cc2cccc(Cl)c2c(=O)n1-c1ccccc1 [Compound 108] | – | – | – | > 7.00 | 6.00 to 7.00 | 6.00 to 7.00 | 6.00 to 7.00 | 5.00 to 6.00 | 5.00 to 6.00
8 | C[C@H](NC(=O)c1cnn2cccnc12)c1cc2cccc(Cl)c2c(=O)n1-c1ccccc1 [Compound 22] | – | – | – | 6.00 to 7.00 | 6.00 to 7.00 | 5.00 to 6.00 | 5.00 to 6.00 | 5.00 to 6.00 | < 5.00
9 | C[C@H](NC(=O)c1c(N)nn2cccnc12)c1cc2cccc(-c3ccn[nH]3)c2c(=O)n1-c1ccccc1 [Compound 221] | – | – | – | > 7.00 | 6.00 to 7.00 | 6.00 to 7.00 | < 5.00 | 5.00 to 6.00 | 5.00 to 6.00
10 | CC#Cc1cccc2cc([C@H](C)NC(=O)c3c(N)nn4cccnc34)n(-c3ccccc3)c(=O)c12 [Compound 167] | – | – | – | > 7.00 | > 7.00 | > 7.00 | 5.00 to 6.00 | 5.00 to 6.00 | 5.00 to 6.00
11 | C[C@H](NC(=O)c1nc(-c2ccc(S(C)(=O)=O)cc2)cnc1N)c1cc2cccc(Cl)c2c(=O)n1-c1ccccc1 [Compound 90] | – | – | – | 6.00 to 7.00 | 5.00 to 6.00 | 5.00 to 6.00 | < 5.00 | < 5.00 | < 5.00
12 | C[C@H](NC(=O)c1c(N)nn2cccnc12)c1cc2cccc(C#CCNC(=O)C3CCC(=O)C3)c2c(=O)n1-c1ccccc1 (stereo partly shown) [Compound 162] | – | – | – | > 7.00 | > 7.00 | > 7.00 | 5.00 to 6.00 | 5.00 to 6.00 | 6.00 to 7.00
13 | C[C@H](NC(=O)c1c(N)nn2cccnc12)c1cc2cccc(C(F)(F)F)c2c(=O)n1-c1ccccc1 [Compound 71] | – | – | – | > 7.00 | > 7.00 | 6.00 to 7.00 | 5.00 to 6.00 | 5.00 to 6.00 | < 5.00
14 | C[C@H](NC(=O)c1c(N)nn2cccnc12)c1cc2cccc(C3CC3)c2c(=O)n1-c1ccccc1 [Compound 193] | – | – | – | > 7.00 | 6.00 to 7.00 | 5.00 to 6.00 | < 5.00 | 5.00 to 6.00 | < 5.00
15 | COc1cc(-c2cccc3cc([C@H](C)NC(=O)c4c(N)nn5cccnc45)n(-c4cccc(F)c4)c(=O)c23)ccn1 [Compound 189] | – | – | – | > 7.00 | 6.00 to 7.00 | 6.00 to 7.00 | < 5.00 | 5.00 to 6.00 | 5.00 to 6.00
16 | C[C@H](NC(=O)c1nc(-c2cccc(O)c2)cnc1N)c1cc2cccc(Cl)c2c(=O)n1-c1ccccc1 [Compound 104] | – | – | – | 6.00 to 7.00 | 6.00 to 7.00 | 5.00 to 6.00 | 5.00 to 6.00 | < 5.00 | < 5.00

Row | Structure (SMILES) | plasma stability [1] | chemical stability [2] | lupus symptoms [3] | pIC50 [4] | pIC50 [5] | pIC50 [6] | pIC50 [7] | pIC50 [8] | pIC50 [9]
17 | COc1cc(-c2cccc3cc([C@H](C)NC(=O)c4c(N)nn5cccnc45)n(-c4ccccc4)c(=O)c23)ccn1 [Compound 116] | – | – | – | > 7.00 | > 7.00 | 6.00 to 7.00 | 5.00 to 6.00 | 5.00 to 6.00 | 5.00 to 6.00
18 | CC(C)Oc1ccc(-c2cnc(N)c(C(=O)N[C@@H](C)c3cc4cccc(Cl)c4c(=O)n3-c3ccccc3)n2)cc1F [Compound 87] | – | – | – | 6.00 to 7.00 | 5.00 to 6.00 | 6.00 to 7.00 | < 5.00 | 5.00 to 6.00 | 5.00 to 6.00
19 | CNc1cccc2cc([C@H](C)NC(=O)c3c(N)nn4cccnc34)n(-c3ccccc3)c(=O)c12 [Compound 266] | – | – | – | > 7.00 | 6.00 to 7.00 | 5.00 to 6.00 | < 5.00 | < 5.00 | 5.00 to 6.00
20 | COc1ccc(-c2cccc3cc([C@H](C)NC(=O)c4c(N)nn5cccnc45)n(-c4ccccc4)c(=O)c23)cn1 [Compound 223] | – | – | – | > 7.00 | > 7.00 | 6.00 to 7.00 | < 5.00 | 5.00 to 6.00 | < 5.00
21 | C[C@H](NC(=O)c1nccnc1N)c1cc2cccc(-c3cccnc3)c2c(=O)n1-c1ccccc1 [Compound 55] | – | – | – | 5.00 to 6.00 | > 7.00 | 5.00 to 6.00 | < 5.00 | > 7.00 | < 5.00
22 | C[C@H](NC(=O)c1c(N)nn2cccnc12)c1cc2cccc(C=O)c2c(=O)n1-c1ccccc1 [Compound 201] | – | – | – | > 7.00 | 6.00 to 7.00 | 5.00 to 6.00 | 5.00 to 6.00 | 5.00 to 6.00 | < 5.00
23 | C[C@H](NC(=O)c1cnn2cccnc12)c1cc2cccc(Cl)c2c(=O)n1-c1ccc(F)cc1 [Compound 62] | – | – | – | 6.00 to 7.00 | 6.00 to 7.00 | 6.00 to 7.00 | 5.00 to 6.00 | 5.00 to 6.00 | 5.00 to 6.00
24 | CC(C)Oc1ccc(-c2cnc(N)c(C(=O)N[C@@H](C)c3cc4cccc(Cl)c4c(=O)n3-c3ccccc3)n2)cn1 [Compound 98] | – | – | – | 6.00 to 7.00 | 6.00 to 7.00 | 5.00 to 6.00 | < 5.00 | 5.00 to 6.00 | < 5.00
25 | C[C@H](NC(=O)c1c(N)nn2cccnc12)c1cc2cccc(-c3ccc(=O)n(C)c3)c2c(=O)n1-c1ccccc1 [Compound 121] | – | – | – | > 7.00 | > 7.00 | > 7.00 | < 5.00 | 6.00 to 7.00 | < 5.00
26 | CC(=O)Nc1cccc(-c2cccc3cc([C@H](C)NC(=O)c4c(N)nn5cccnc45)n(-c4ccccc4)c(=O)c23)c1 [Compound 202] | – | – | – | 6.00 to 7.00 | > 7.00 | 6.00 to 7.00 | < 5.00 | 5.00 to 6.00 | 5.00 to 6.00
27 | C[C@H](NC(=O)c1nc(-c2cscn2)cnc1N)c1cc2cccc(Cl)c2c(=O)n1-c1ccccc1 [Compound 112] | – | – | – | > 7.00 | 6.00 to 7.00 | 6.00 to 7.00 | 5.00 to 6.00 | < 5.00 | 5.00 to 6.00
28 | C[C@H](NC(=O)c1nc(-c2cccc(S(=O)(=O)N3CCCC3)c2)cnc1N)c1cc2cccc(Cl)c2c(=O)n1-c1ccccc1 [Compound 92] | – | – | – | 5.00 to 6.00 | 5.00 to 6.00 | 5.00 to 6.00 | 5.00 to 6.00 | 5.00 to 6.00 | < 5.00
29 | C[C@H](NC(=O)c1nc(-c2cncc(NS(C)(=O)=O)c2)cnc1N)c1cc2cccc(Cl)c2c(=O)n1-c1ccccc1 [Compound 107] | – | – | – | > 7.00 | 6.00 to 7.00 | > 7.00 | > 7.00 | 6.00 to 7.00 | 6.00 to 7.00
30 | C[C@H](NC(=O)c1c(N)nn2cccnc12)c1cc2cccc(C#CCNS(C)(=O)=O)c2c(=O)n1-c1ccccc1 [Compound 187] | – | – | – | > 7.00 | 6.00 to 7.00 | 6.00 to 7.00 | 5.00 to 6.00 | 5.00 to 6.00 | 5.00 to 6.00
31 | C[C@H](NC(=O)c1c(N)nn2cccnc12)c1cc2cccc(-c3ccccc3)c2c(=O)n1-c1ccccc1 [Compound 115] | – | – | – | > 7.00 | 6.00 to 7.00 | 6.00 to 7.00 | < 5.00 | 5.00 to 6.00 | 5.00 to 6.00
32 | C[C@H](NC(=O)c1c(N)nn2cccnc12)c1cc2cccc(C#CCNC(=O)c3ccc(C#N)o3)c2c(=O)n1-c1ccccc1 [Compound 164] | – | – | – | > 7.00 | > 7.00 | 6.00 to 7.00 | 5.00 to 6.00 | 5.00 to 6.00 | 6.00 to 7.00
